In ChEMBL document CHEMBL3526048, “In vitro metabolism of rivoglitazone, a novel peroxisome proliferator-activated receptor γ agonist, in rat, monkey, and human liver microsomes and freshly isolated hepatocytes” (Drug Metab Dispos, 2011):

Tests used:
[1] = target: T1, UDP-glucuronosyltransferase 1A8 (Homo sapiens, UniProt Q9HAW9); test: (§1) Activity of human UGT1A8 expressed in microsomes isolated from baculovirus infected insect cell assessed as enzyme-mediated (2S,3S,4S,5R,6R)-3,4,5-trihydroxy-6-(5-(4-((6-methoxy-1-methyl-1H-benzo[d]imidazol-2-yl)methoxy)benzyl)-2,4-dioxothiazolidin-3-yl)tetrahydro-2H-pyran-2-carboxylic acid formation at 20 uM after 4 hrs by radio-HPLC/LC-MS/MS analysis in presence of UDPGA; assay type: ADME
T1 sequence (Q9HAW9 whole entry): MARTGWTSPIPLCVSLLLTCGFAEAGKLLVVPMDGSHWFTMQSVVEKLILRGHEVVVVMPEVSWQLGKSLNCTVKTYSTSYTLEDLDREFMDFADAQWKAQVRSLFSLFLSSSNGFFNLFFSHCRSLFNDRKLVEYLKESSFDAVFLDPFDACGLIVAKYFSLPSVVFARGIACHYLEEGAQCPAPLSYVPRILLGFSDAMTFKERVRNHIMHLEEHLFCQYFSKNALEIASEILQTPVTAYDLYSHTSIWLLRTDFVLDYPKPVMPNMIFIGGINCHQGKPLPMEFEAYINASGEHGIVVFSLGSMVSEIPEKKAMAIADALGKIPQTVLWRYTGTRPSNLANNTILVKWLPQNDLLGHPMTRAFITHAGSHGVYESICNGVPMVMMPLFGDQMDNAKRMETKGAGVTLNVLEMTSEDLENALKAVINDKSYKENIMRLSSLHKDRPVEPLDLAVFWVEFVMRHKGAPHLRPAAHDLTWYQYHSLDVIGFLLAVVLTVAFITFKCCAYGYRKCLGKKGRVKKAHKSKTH

Liver microsome = test: Drug metabolism in human liver microsomes assessed as formation of 5-(4-((6-hydroxy-1-methyl-1H-benzo[d]imidazol-2-yl)methoxy)benzyl)thiazolidine-2,4-dione at 20 uM after 2 hrs by radio-HPLC/LC-MS/MS analysis in presence of NADPH-generating system and NADPH-generating system/SAM; assay type: ADME
[2] = Drug metabolism in monkey hepatocytes assessed as formation of 3-(4-((6-methoxy-1-methyl-1H-benzo[d]imidazol-2-yl)methoxy)phenyl)-2-(methylsulfonyl)propanamide at 30 uM after 3 hrs by radio-HPLC/LC-MS/MS analysis in presence of NADPH-generating system/SAM; conditions: cynomolgus monkey
[3] = target: T2, UDP-glucuronosyltransferase 1A3 (Homo sapiens, UniProt P35503); test: Activity of human UGT1A3 expressed in microsomes isolated from baculovirus infected insect cell assessed as enzyme-mediated 5-(4-((6-hydroxy-1-methyl-1H-benzo[d]imidazol-2-yl)methoxy)benzyl)thiazolidine-2,4-dione formation at 20 uM after 4 hrs by radio-HPLC/LC-MS/MS analysis in presence of NADPH-generating system/SAM; assay type: ADME
T2 sequence (P35503 whole entry): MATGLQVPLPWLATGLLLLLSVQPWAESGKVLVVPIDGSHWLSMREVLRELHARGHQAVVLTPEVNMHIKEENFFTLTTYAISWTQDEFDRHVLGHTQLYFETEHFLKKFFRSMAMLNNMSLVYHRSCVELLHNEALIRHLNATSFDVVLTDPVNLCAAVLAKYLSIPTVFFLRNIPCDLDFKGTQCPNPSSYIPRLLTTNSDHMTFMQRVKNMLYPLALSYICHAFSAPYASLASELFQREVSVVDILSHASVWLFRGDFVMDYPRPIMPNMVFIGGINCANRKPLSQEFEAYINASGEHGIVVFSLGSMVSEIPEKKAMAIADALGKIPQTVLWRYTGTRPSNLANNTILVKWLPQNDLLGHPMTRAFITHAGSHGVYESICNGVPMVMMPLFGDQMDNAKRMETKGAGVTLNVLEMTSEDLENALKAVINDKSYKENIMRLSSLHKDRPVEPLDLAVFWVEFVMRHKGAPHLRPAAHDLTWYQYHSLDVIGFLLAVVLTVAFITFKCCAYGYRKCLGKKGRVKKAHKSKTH

Cytochrome P450 2C19 = Cytochrome P450 2C19 (Homo sapiens, UniProt P33261); test: Activity of human CYP2C19 expressed in microsomes isolated from baculovirus infected insect cell assessed as enzyme-mediated 3-(4-((6-methoxy-1-methyl-1H-benzo[d]imidazol-2-yl)methoxy)phenyl)-2-(methylthio)propanamide formation at 20 uM after 2 hrs by radio-HPLC/LC-MS/MS analysis in presence of NADPH-generating system/SAM; assay type: ADME
Chain of Cytochrome P450 2C19 (P33261 whole entry): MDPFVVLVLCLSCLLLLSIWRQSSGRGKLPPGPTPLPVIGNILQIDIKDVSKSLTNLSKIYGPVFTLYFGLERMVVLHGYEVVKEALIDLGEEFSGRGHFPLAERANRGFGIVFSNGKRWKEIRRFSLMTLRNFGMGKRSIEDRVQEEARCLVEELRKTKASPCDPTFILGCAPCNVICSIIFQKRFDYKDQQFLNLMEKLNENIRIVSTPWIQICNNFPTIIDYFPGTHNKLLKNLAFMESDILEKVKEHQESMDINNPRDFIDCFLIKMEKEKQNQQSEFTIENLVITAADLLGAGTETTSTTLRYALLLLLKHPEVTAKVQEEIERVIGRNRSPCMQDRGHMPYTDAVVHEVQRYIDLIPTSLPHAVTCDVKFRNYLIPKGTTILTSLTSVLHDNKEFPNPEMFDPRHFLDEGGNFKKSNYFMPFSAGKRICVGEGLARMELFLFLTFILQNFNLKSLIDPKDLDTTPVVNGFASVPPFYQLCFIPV

[4] = Drug metabolism in human hepatocytes assessed as formation of 2-((4-((2,4-dioxothiazolidin-5-yl)methyl)phenoxy)methyl)-1-methyl-1H-benzo[d]imidazol-6-yl hydrogen sulfate at 30 uM after 3 hrs by radio-HPLC/LC-MS/MS analysis; assay type: ADME, cell-based, Hepatocyte
[5] = target: T3, UDP-glucuronosyltransferase 2B4 (Homo sapiens, UniProt P06133); test: Activity of human UGT2B4 expressed in microsomes isolated from baculovirus infected insect cell assessed as enzyme-mediated 2-mercapto-3-(4-((6-methoxy-1-methyl-1H-benzo[d]imidazol-2-yl)methoxy)phenyl)propanoic acid formation at 20 uM after 4 hrs by radio-HPLC/LC-MS/MS analysis in presence of UDPGA; assay type: ADME
T3 sequence (P06133 whole entry): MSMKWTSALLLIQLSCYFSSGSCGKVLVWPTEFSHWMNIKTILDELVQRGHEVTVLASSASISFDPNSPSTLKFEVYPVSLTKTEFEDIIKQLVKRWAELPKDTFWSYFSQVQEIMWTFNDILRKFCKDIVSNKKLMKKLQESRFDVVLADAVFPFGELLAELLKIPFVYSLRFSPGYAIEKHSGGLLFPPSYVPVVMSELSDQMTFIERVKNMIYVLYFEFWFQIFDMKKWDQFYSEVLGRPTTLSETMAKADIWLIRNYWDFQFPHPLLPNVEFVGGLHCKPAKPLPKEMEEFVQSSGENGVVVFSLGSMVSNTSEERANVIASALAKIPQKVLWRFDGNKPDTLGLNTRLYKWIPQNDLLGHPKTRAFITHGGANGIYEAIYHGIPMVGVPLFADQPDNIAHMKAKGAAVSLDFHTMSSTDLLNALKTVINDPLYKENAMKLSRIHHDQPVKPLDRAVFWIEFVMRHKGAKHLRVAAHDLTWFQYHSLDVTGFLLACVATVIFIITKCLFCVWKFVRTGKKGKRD

[6] = target: T3, UDP-glucuronosyltransferase 2B4; test: as §1, with “UGT2B4” for “UGT1A8”; assay type: ADME

Drug metabolism [1]: metabolite_not_detected
Drug metabolism (Liver microsome): metabolite_detected
Drug metabolism [2]: metabolite_not_detected
Drug metabolism [3]: metabolite_not_detected
Drug metabolism (Cytochrome P450 2C19): metabolite_not_detected
Drug metabolism [4]: metabolite_detected
Drug metabolism [5]: metabolite_not_detected
Drug metabolism [6]: metabolite_not_detected
SMILES: COc1ccc2nc(COc3ccc(C[14CH]4SC(=O)NC4=O)cc3)n(C)c2c1.Cl (racemic)
